This note sets out measurements from patent publication US9573891B2, “Complexes of agomelatine and sulphonic acids, a process for their preparation and pharmaceutical compositions containing them” (LES LABORATOIRES SERVIER, priority 2013, dated 2017).

Data set [1] can be described thus: Solubility by HPLC (external standard method) compared with agomelatine of form II. It counts as physicochemical. Here is the method:
Using an external standard method, the compounds of Examples 1, 2 and 3 are tested by HPLC and compared with agomelatine of form II. The results are presented in Table 5 in the form of % increase in solubility relative to the solubility of agomelatine of form II: […]

A short description of data set [2]: Stability under denaturing conditions in incubators, determined by DSC over 2 months. The class given is physicochemical. Here is the method: Samples of the compounds of Examples 1, 2 and 3 are placed in incubators under denaturing conditions and the stability is determined by DSC measurements over 2 months.

Regarding `COc1ccc2cccc(CCNC(C)=O)c2c1.O.O=S(=O)(O)c1cccc2c(S(=O)(=O)O)cccc12` [Compound of Example 2, Agomelatine/1,5-Naphthalenedisulphonic Acid (2/1) Monohydrate Complex], in data set [1], the “Solubility (increase versus agomelatine form II) in 0.1N HCl” value is reported as “+75%”, the “Solubility (increase versus agomelatine form II) in a buffer pH 6.8” value is “+57%” and the “Solubility (increase versus agomelatine form II) in water” value was “+12%”. For the same molecule, in data set [2] (25° C., 60% RH, open bottle), the Stability result is “stable”. The Stability result in data set [2] (50° C., closed bottle) was “stable”. The Stability result in data set [2] (70° C., closed bottle) is reported as “stable”.

As to `COc1ccc2cccc(CCNC(C)=O)c2c1.O=S(=O)(O)c1cccc2c(S(=O)(=O)O)cccc12` [Compound of Example 1, Agomelatine/1,5-Naphthalenedisulphonic Acid (2/1) Complex], in data set [1], the “Solubility (increase versus agomelatine form II) in 0.1N HCl” value is listed as “+25%”. Further, in data set [1], the “Solubility (increase versus agomelatine form II) in a buffer pH 6.8” value is listed as “+48%”. For the same molecule, the “Solubility (increase versus agomelatine form II) in water” value in data set [1] is on record as “+18%”. Further, the Stability entry in data set [2] (25° C., 60% RH, open bottle) is given as “stable”; in data set [2] (50° C., closed bottle), “stable”; in data set [2] (70° C., closed bottle) it was “stable”.

On to `COc1ccc2cccc(CCNC(C)=O)c2c1.COc1ccc2cccc(CCNC(C)=O)c2c1.O=S(=O)(O)c1ccccc1` [Compound of Example 3, Agomelatine/Benzenesulphonic Acid (2/1) Complex], for which, in data set [1], the “Solubility (increase versus agomelatine form II) in 0.1N HCl” value is “+32%”, the “Solubility (increase versus agomelatine form II) in a buffer pH 6.8” value is on record as “+46%” and the “Solubility (increase versus agomelatine form II) in water” value was “+22%”. Also, in data set [2] (25° C., 60% RH, open bottle), the Stability result is listed as “stable”. For the same molecule, the Stability result in data set [2] (50° C., closed bottle) is recorded as “stable”. Besides, the Stability result in data set [2] (70° C., closed bottle) is “stable”.
